Data from ChEMBL document CHEMBL3885881, “DrugMatrix”.

Species on record: Rattus norvegicus
Assay: DrugMatrix - Regimen: Daily Repeat
Type: toxicity, organism-based, Sprague-Dawley
Design: regimen Daily Repeat, gender Male, age 6-8 weeks
Settings: in vivo, po, route oral GAVAGE, vehicle 100 % WATER; for ABSOLUTE BASOPHIL / ABSOLUTE EOSINOPHIL / ABSOLUTE LYMPHOCYTE / ABSOLUTE MONOCYTE / ABSOLUTE SEGMENTED NEUTROPHIL / BASOPHIL / EOSINOPHIL / ERYTHROCYTE COUNT / HEMATOCRIT / HEMOGLOBIN / LEUKOCYTE COUNT / LYMPHOCYTE / MEAN CORPUSCULAR HEMOGLOBIN / MEAN CORPUSCULAR HEMOGLOBIN CONCENTRATION / MEAN CORPUSCULAR VOLUME / MONOCYTE / NEUTROPHIL / NUCLEATED RED BLOOD CELLS / PLATELET COUNT: tissue Blood; for ALANINE AMINOTRANSFERASE / ALBUMIN / ALKALINE PHOSPHATASE / ASPARTATE AMINOTRANSFERASE / BLOOD UREA NITROGEN / CARBON DIOXIDE / CHLORIDE / CHOLESTEROL / CREATINE PHOSPHOKINASE / CREATININE / GLUCOSE / LACTATE DEHYDROGENASE / LIPASE / PHOSPHORUS / POTASSIUM / SODIUM / TOTAL BILIRUBIN / TOTAL PROTEIN / URIC ACID: tissue Plasma
[1] = 5 mg/kg, 120 h, dose level Low, time 5 day
[2] = 15 mg/kg, 72 h, dose level High, time 3 day
[3] = 15 mg/kg, 120 h, dose level High, time 5 day

C[N+](C)(C)CCOC(N)=O.[Cl-] [CARBACHOL]
ABSOLUTE BASOPHIL [1]: 0 CELLS/uL
ABSOLUTE EOSINOPHIL [1]: 0 CELLS/uL
ABSOLUTE LYMPHOCYTE [1]: 11606.67 CELLS/uL
ABSOLUTE MONOCYTE [1]: 117 CELLS/uL
ABSOLUTE SEGMENTED NEUTROPHIL [1]: 1076.33 CELLS/uL
BASOPHIL [1]: 0%
EOSINOPHIL [1]: 0%
ERYTHROCYTE COUNT [1]: 5.68 x10E6/uL
HEMATOCRIT [1]: 35.2%
HEMOGLOBIN [1]: 13.47 G/DL
LEUKOCYTE COUNT [1]: 12.8 x10E3/uL
LYMPHOCYTE [1]: 90.33%
MEAN CORPUSCULAR HEMOGLOBIN [1]: 23.7 pg
MEAN CORPUSCULAR HEMOGLOBIN CONCENTRATION [1]: 38.27 G/DL
MEAN CORPUSCULAR VOLUME [1]: 62 fL
MONOCYTE [1]: 1%
NEUTROPHIL [1]: 8.67%
NUCLEATED RED BLOOD CELLS [1]: 0 /100WBC
PLATELET COUNT [1]: 1163.67 x10E3/uL
ALANINE AMINOTRANSFERASE [1]: 62.33 u/L
ALBUMIN [1]: 3.97 G/DL
ALKALINE PHOSPHATASE [1]: 368 u/L
ASPARTATE AMINOTRANSFERASE [1]: 96.33 u/L
BLOOD UREA NITROGEN [1]: 14.67 mg/dL
CARBON DIOXIDE [1]: 33.33 mmol/L
CHLORIDE [1]: 99.33 MEQ/L
CHOLESTEROL [1]: 68.33 mg/dL
CREATINE PHOSPHOKINASE [1]: 498.67 u/L
CREATININE [1]: 0.15 mg/dL
GLUCOSE [1]: 136.67 mg/dL
LACTATE DEHYDROGENASE [1]: 139.33 u/L
LIPASE [1]: 8.67 u/L
PHOSPHORUS [1]: 10.83 mg/dL
POTASSIUM [1]: 5.88 MEQ/L
SODIUM [1]: 143.33 MEQ/L
TOTAL BILIRUBIN [1]: 0.2 mg/dL
TOTAL PROTEIN [1]: 5.77 G/DL
URIC ACID [1]: 0.63 mg/dL
ABSOLUTE BASOPHIL [2]: 0 CELLS/uL
ABSOLUTE EOSINOPHIL [2]: 0 CELLS/uL
ABSOLUTE LYMPHOCYTE [2]: 9349.33 CELLS/uL
ABSOLUTE MONOCYTE [2]: 72.33 CELLS/uL
ABSOLUTE SEGMENTED NEUTROPHIL [2]: 311.67 CELLS/uL
BASOPHIL [2]: 0%
EOSINOPHIL [2]: 0%
ERYTHROCYTE COUNT [2]: 5.27 x10E6/uL
HEMATOCRIT [2]: 33.67%
HEMOGLOBIN [2]: 12.87 G/DL
LEUKOCYTE COUNT [2]: 9.73 x10E3/uL
LYMPHOCYTE [2]: 95.67%
MEAN CORPUSCULAR HEMOGLOBIN [2]: 24.4 pg
MEAN CORPUSCULAR HEMOGLOBIN CONCENTRATION [2]: 38.23 G/DL
MEAN CORPUSCULAR VOLUME [2]: 63.83 fL
MONOCYTE [2]: 0.67%
NEUTROPHIL [2]: 3.67%
NUCLEATED RED BLOOD CELLS [2]: 0 /100WBC
PLATELET COUNT [2]: 1174 x10E3/uL
ALANINE AMINOTRANSFERASE [2]: 42.33 u/L
ALBUMIN [2]: 3.9 G/DL
ALKALINE PHOSPHATASE [2]: 336.33 u/L
ASPARTATE AMINOTRANSFERASE [2]: 77 u/L
BLOOD UREA NITROGEN [2]: 11.33 mg/dL
CARBON DIOXIDE [2]: 34 mmol/L
CHLORIDE [2]: 101 MEQ/L
CHOLESTEROL [2]: 72 mg/dL
CREATINE PHOSPHOKINASE [2]: 402.67 u/L
CREATININE [2]: 0.11 mg/dL
GLUCOSE [2]: 134.67 mg/dL
LACTATE DEHYDROGENASE [2]: 129.33 u/L
LIPASE [2]: 9 u/L
PHOSPHORUS [2]: 11.9 mg/dL
POTASSIUM [2]: 5.89 MEQ/L
SODIUM [2]: 146.47 MEQ/L
TOTAL BILIRUBIN [2]: 0.13 mg/dL
TOTAL PROTEIN [2]: 5.67 G/DL
URIC ACID [2]: 0.5 mg/dL
ABSOLUTE BASOPHIL [3]: 0 CELLS/uL
ABSOLUTE EOSINOPHIL [3]: 48 CELLS/uL
ABSOLUTE LYMPHOCYTE [3]: 6680.67 CELLS/uL
ABSOLUTE MONOCYTE [3]: 148.67 CELLS/uL
ABSOLUTE SEGMENTED NEUTROPHIL [3]: 722.67 CELLS/uL
BASOPHIL [3]: 0%
EOSINOPHIL [3]: 0.67%
ERYTHROCYTE COUNT [3]: 5.28 x10E6/uL
HEMATOCRIT [3]: 33.7%
HEMOGLOBIN [3]: 13.03 G/DL
LEUKOCYTE COUNT [3]: 7.6 x10E3/uL
LYMPHOCYTE [3]: 87.67%
MEAN CORPUSCULAR HEMOGLOBIN [3]: 24.73 pg
MEAN CORPUSCULAR HEMOGLOBIN CONCENTRATION [3]: 38.7 G/DL
MEAN CORPUSCULAR VOLUME [3]: 63.97 fL
MONOCYTE [3]: 2%
NEUTROPHIL [3]: 9.67%
NUCLEATED RED BLOOD CELLS [3]: 0 /100WBC
PLATELET COUNT [3]: 1083.67 x10E3/uL
ALANINE AMINOTRANSFERASE [3]: 53 u/L
ALBUMIN [3]: 3.73 G/DL
ALKALINE PHOSPHATASE [3]: 301 u/L
ASPARTATE AMINOTRANSFERASE [3]: 93 u/L
BLOOD UREA NITROGEN [3]: 15.67 mg/dL
CARBON DIOXIDE [3]: 30.67 mmol/L
CHLORIDE [3]: 101.67 MEQ/L
CHOLESTEROL [3]: 64 mg/dL
CREATINE PHOSPHOKINASE [3]: 243.33 u/L
CREATININE [3]: 0.18 mg/dL
GLUCOSE [3]: 145.67 mg/dL
LACTATE DEHYDROGENASE [3]: 116.33 u/L
LIPASE [3]: 11 u/L
PHOSPHORUS [3]: 10.67 mg/dL
POTASSIUM [3]: 5.44 MEQ/L
SODIUM [3]: 146.13 MEQ/L
TOTAL BILIRUBIN [3]: 0.1 mg/dL
TOTAL PROTEIN [3]: 5.47 G/DL
URIC ACID [3]: 0.57 mg/dL
